US10766857B2, “Compound having BLT inhibitory activity and composition, for preventing or treating inflammatory diseases, comprising same as active ingredient” (DONGGUK UNIVERSITY INDUSTRY-ACADEMIC COOPERATION FOUNDATION, priority 2015, dated 2020)

Legend:
BLT2 = molecular target: T1, BLT2 (Homo sapiens, UniProt Q9NPC1); test: LTB4-induced chemotactic motility, Transwell, CHO-BLT2 cells; assay type: cell-based; details: LTB4 300 nM
T1 construct: HA; expressed in transfected cells
T1 sequence (Q9NPC1 with tags, fused parts or gaps): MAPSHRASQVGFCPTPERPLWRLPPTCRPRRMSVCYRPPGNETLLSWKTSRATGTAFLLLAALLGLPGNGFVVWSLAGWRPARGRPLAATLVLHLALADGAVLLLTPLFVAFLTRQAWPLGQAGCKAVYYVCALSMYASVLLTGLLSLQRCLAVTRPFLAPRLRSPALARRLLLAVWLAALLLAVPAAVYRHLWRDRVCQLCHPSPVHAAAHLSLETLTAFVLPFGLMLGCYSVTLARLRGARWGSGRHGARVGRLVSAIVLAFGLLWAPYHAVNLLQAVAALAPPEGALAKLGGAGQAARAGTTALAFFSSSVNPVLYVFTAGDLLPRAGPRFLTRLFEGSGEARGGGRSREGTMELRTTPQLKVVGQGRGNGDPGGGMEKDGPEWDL
Description: Chemotactic motility was analyzed using a Transwell chamber including a polycarbonate filter (8-μm pore size, Corning Costar) with a 6.5-mm diameter. Specifically, the lower surface of the filter was coated with 10 μg/mL fibronectin in a serum-free RPMI 1640 medium at 37° C. for 1 hour. The experiment was performed by placing the filter dried and coated with RPMI 1640 media containing various amounts of LTB4 in the lower wells of the Transwell chamber, and loading CHO cells stably expressing BLT1 and BLT2 into the upper wells containing serum-free RPMI 1640 media finally at 2×10^4 cells/100 μL. To evaluate the effect of inhibitors, the cells were pre-treated with each inhibitor for 30 minutes before dispensing. After the cells were cultured at 37° C. in 5% CO2 for 3 hours, the filters were fixed with methanol for 3 minutes, and stained with hematoxylin and eosin for 10 minutes. In the experiment, the cells were BLT2-expressing cells (CHO-BLT2 cells) and BLT1-expressing cells (CHO-BLT1 cells), and LY255283 and U75302 were used as positive controls for each type of the cells, and BLT2 ligand LTB4, (300 nM), BLT1 ligand LTB4 (10 nM), and lysophosphatidic acid (LPA; 100 nM) were used as comparative controls. The chemotactic motility was quantitatively analyzed by counting the cells on the lower side of the filter under an optical microscope (magnification, 200×). For each analysis, 6 fields were subjected to counting, each sample was analyzed twice, and the analysis was repeated three times.

[1] = system: cancer cells (MDA-MB-231); test: Metastasis of breast cancer cells in nude mice; assay type: in vivo; details: MDA-MB-231 in nude mice, i.p.; LMT-696 and LY255283 2.5 mg/kg, U75302 0.25 mg/kg; 15 weeks
Description: An experiment for the metastasis of breast cancer cells according to the treatment of the compound of the present invention was approved by the Ethics Committee of Korea University, and all experimental animals used in this experiment were treated according to the approved guidelines of the Korea University Animal Care and Use Committee. Six-week-old female nude mice (Charles River, Wilmington, Mass.) were injected with cancer cells to confirm cancer cell metastasis. The breast cancer cells were pre-treated with the compound of the present invention (LMT-696, 10 μM), LY255283, U75302 and DMSO, and 24 hours later, harvested with trypsin-EDTA, resuspended in PBS, and then 2×10^6 of the breast cancer cells were intraperitoneally injected into mice anesthetized with zoletil (50 mg/kg). After five days, the compound of the present invention (LMT-696; 2.5 mg/kg), LY255283 (2.5 mg/kg), U75302 (0.25 mg/kg) and DMSO were injected intraperitoneally three times every five days. At 15 weeks after the injection of the breast cancer cells, the mice were dissected to observe the cancer cell metastasis.

[2] = molecular target: T2, BLT2-expressing cells (CHO-BLT2 cells) (Homo sapiens, UniProt Q9NPC1); test: MTT cell growth of LTB4-stimulated BLT2-expressing cells; assay type: cell-based; details: pre-treated at 10 μM, LTB4 300 nM
T2 construct: HA; expressed in transfected cells
T2 sequence (Q9NPC1 with tags, fused parts or gaps): T1 sequence (Q9NPC1 with tags, fused parts or gaps)
Description: Cell viability according to treatment of the compounds prepared in the examples were measured by a 3-(4,5-dimethylthiazol-2-yl)-2,5-diphenyltetrazolium bromide (MTT) method.
More specifically, 1×10^4 each of the BLT2-nonexpressing cells (CHO-pcDNA3.1 cells) and BLT2-expressing cells (CHO-BLT2 cells), which were prepared in Experimental Example 1, were dispensed in a […], and cultured for 24 hours. Afterward, the culture medium was removed, a serum-free RPMI medium was added, and after two hours, the cells were pre-treated with each of the compound prepared in one of the examples (10 μM), 10 μM DMSO (compound solvent) as a control, and 10 μM 1-[5-ethyl-2-hydroxy-4-[[6-methyl-6-(1H-tetrazol-5-yl)heptyl]oxy]phenyl]-ethanone (LY255283; Cayman) as a positive control for 1 hour. Subsequently, after treatment of LTB4 (300 nM), the cells were cultured for 24 hours. 20 μL of an MTT solution (5 mg/mL, Sigma-Aldrich) was added to each well, the cells were cultured in a humid CO2 incubator at 37° C. for 4 hours, a supernatant was removed, and 200 μL of DMSO was added to each well to dissolve insoluble violet formazan crystals. Absorbance was measured using a microplate reader (Molecular Devices, Sunnyvale, Calif.) at 550 nm, and the measurement was repeated three times.

MDA-MB-231 cells = test: Intracellular ROS generation (DCF fluorescence); assay type: cell-based; details: 30 minutes treatment
Description: (§1) The breast cancer cells such as the MDA-MB-231 cells were obtained from Korean Cell Line Bank (Seoul, Korea), and the MDA-MB-435 cells were provided by J. H. Lee (Asan Medical Center, Seoul, Korea). These cells were cultured in an RPMI 1640 medium (Invitrogen) containing 10% FBS (Life Technologies, Inc.), 1% penicillin (50 units/mL), and an antibiotic antimycotic solution (Life Technologies, Inc.) at 37° C. under a 5% CO2 condition.
(§2) Intracellular ROS (H2O2) generated according to the treatment of the compound of the present invention (LMT-696) was measured as a function of DCF fluorescence. Specifically, before ROS measurement, 2×10^5 cells were grown in 60-mm wells, and cultured in a FBS-supplemented RPMI 1640 medium for 24 hours. To evaluate the effect of the compound of the present invention, the cells were treated with the compound (LMT-696) for 30 minutes. To measure the intracellular ROS, the cells were cultured with 20 μM of a H2O2-sensitive fluorescent material such as H2DCFDA [Molecular Probes (Eugene, Oreg.)] at 37° C. in a dark and humidified CO2 incubator for 20 minutes. […] A DCF fluorescent degree was measured with excitation and emission wavelengths at 488 and 530 nm, respectively, using a FACS Calibur flow cytometer (Becton Dickinson, N.J.).

MDA-MB-435 cells = test: Intracellular ROS generation (DCF fluorescence); assay type: cell-based; details: 30 minutes treatment
Description: as §1, §2

## CCCCC(=O)N(CC#Cc1ccc(C(=O)N2CCN(C(C)C)CC2)cc1)c1ccccc1 [LMT-696, N-(3-(4-(4-isopropylpiperazine-1-carbonyl)phenyl)prop-2-ynyl)-N-phenylpentaneamide]
BLT2; 10 μM pre-treatment, read-out: chemotactic motility inhibited compared with LTB4 (DMSO+)
  inhibition at 10 µM: 70.3%
BLT2; serum-free, read-out: IC50 of chemotactic motility inhibition
  IC50: 2 µM
[1]
  metastasis of the cancer cells inhibited as compared with the control: 40%
[2]
  cell growth compared with the control DMSO: 56.6%
MDA-MB-231 cells
  inhibition of ROS generation: significant inhibition
MDA-MB-435 cells
  inhibition of ROS generation: significant inhibition
